Experimental data as given in patent US20120015957A1, “PIPERAZINYL DERIVATIVES USEFUL AS MODULATORS OF THE NEUROPEPTIDE Y2 RECEPTOR” (priority 2007, published 2012).

Molecular target: T1, NPY Y2 receptor (Homo sapiens, UniProt P49146)
T1 construct: endogenous in cells; host or cells: KAN-Ts cells (membrane preparation)
T1 sequence (P49146 1-381): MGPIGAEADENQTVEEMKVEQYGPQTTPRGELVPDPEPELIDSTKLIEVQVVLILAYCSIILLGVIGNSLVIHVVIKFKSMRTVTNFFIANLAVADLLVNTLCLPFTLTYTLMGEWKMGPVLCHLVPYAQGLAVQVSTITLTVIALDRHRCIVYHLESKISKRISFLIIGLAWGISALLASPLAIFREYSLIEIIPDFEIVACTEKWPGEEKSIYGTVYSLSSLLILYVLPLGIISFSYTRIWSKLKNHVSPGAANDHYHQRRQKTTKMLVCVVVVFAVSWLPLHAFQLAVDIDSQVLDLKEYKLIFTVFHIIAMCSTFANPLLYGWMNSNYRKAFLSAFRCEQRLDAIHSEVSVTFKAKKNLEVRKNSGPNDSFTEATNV
Assay: Neuropeptide Y2 radioligand binding assay ([125I]PYY, KAN-Ts cell membranes)
Conditions: membranes of KAN-Ts cells endogenously expressing Y2 receptors; [125I]PYY 80 pM; 1 h at rt; read-out: IC50 (μM), NPY Y2 binding
Experimental: KAN-Ts endogenously expressing Y2 receptors were used for the radioligand binding assay. Cells were grown to confluence on 150 cm^2 tissue culture plates, washed with phosphate-buffered saline (PBS), and scraped into 50 mL tubes. After centrifugation, the supernatant was aspirated, and the pellets frozen and stored at −80° C. Thawed pellets were homogenized with a polytron tissue grinder for 15 sec in 20 mM Tris-HCl, 5 mM EDTA. The homogenate was centrifuged at 800×g for 5 min and the collected supernatant was recentrifuged at 25000×g for 25 min. The resulting pellet was resuspended in binding buffer (20 mM HEPES, 120 mM NaCl, 0.22 mM KH2PO4, 1.3 mM CaCl2, 0.8 mM MgSO4). Membranes were incubated with [^125I]PYY (80 pM) in the presence or absence of test compound for 1 h at rt. The reaction was stopped by filtration through GF/C filter plates pre-soaked in 0.3% polyethylenimine and subsequently washed with Tris 50 mM, 5 mM EDTA buffer. Plates were dried for 1 h in a 55° C. oven, scintillation fluid was added and the radioactivity was counted in a Packard TopCount. Specific binding to the NPY receptor subtypes was determined by radioactivity that was bound in the presence of […] NPY. Each binding experiment was repeated three to eight times, each in duplicate. IC50 values (i.e. concentration of unlabelled peptide or antagonist required to compete for 50% of specific binding to the radioligand) were determined using the GraphPad Prism software (GraphPad Software Inc., San Diego Calif.) with a fit to a sigmoidal dose response curve. Apparent K values were as K=IC50/(1+C/KD), where C is concentration of the radioligand.

| Structure (SMILES) | IC50 |
| --- | --- |
| CCN(CC)C(=O)C(c1ccccc1)N1CCN(c2ccc(-c3ccc(C)cc3)cc2F)CC1 (centres unmarked) [Compound 204, N,N-Diethyl-2-[4-(3-fluoro-4′-methyl-biphenyl-4-yl)-piperazin-1-yl]-2-phenyl-acetamide] | 0.77 µM |
| CCN(CC)C(=O)C(c1ccccc1)N1CCN(c2ccc(-c3ccc(OC)cc3)cc2F)CC1 (centres unmarked) [Compound 205, N,N-Diethyl-2-[4-(3-fluoro-4′-methoxy-biphenyl-4-yl)-piperazin-1-yl]-2-phenyl-acetamide] | 1.9 µM |
| CCN(CC)C(=O)C(c1ccccc1)N1CCN(c2ccc(-c3cccc(C)c3)cc2F)CC1 (centres unmarked) [Compound 206] | 0.48 µM |
| CCN(CC)C(=O)C(c1ccccc1)N1CCN(c2ccc(-c3ccc(F)cc3)cc2F)CC1 (centres unmarked) [Compound 207, 2-[4-(3,4′-Difluoro-biphenyl-4-yl)-piperazin-1-yl]-N,N-diethyl-2-phenyl-acetamide] | 1.1 µM |
| CCN(CC)C(=O)C(c1ccccc1)N1CCN(c2ccc(-c3nc(C)n[nH]3)cc2F)CC1 (centres unmarked) [Compound 208, N,N-Diethyl-2-{4-[2-fluoro-4-(5-methyl-2H-[1,2,4]triazol-3-yl)-phenyl]-piperazin-1-yl}-2-phenyl-acetamide] | 2.9 µM |
| CCN(CC)C(=O)C(c1cc(F)ccc1Br)N1CCN(c2ccc(-c3nc(C)no3)cc2F)CC1 (centres unmarked) [Compound 209, 2-(2-Bromo-5-fluoro-phenyl)-N,N-diethyl-2-{4-[2-fluoro-4-(3-methyl-[1,2,4]oxadiazol-5-yl)-phenyl]-piperazin-1-yl}-acetamide] | 0.99 µM |
| CCN(CC)C(=O)C(c1ccc(F)cc1)N1CCN(c2ccc(-c3nc(C)no3)cc2F)CC1 (centres unmarked) [Compound 210, N,N-Diethyl-2-{4-[2-fluoro-4-(3-methyl-[1,2,4]oxadiazol-5-yl)-phenyl]-piperazin-1-yl}-2-(4-fluoro-phenyl)-acetamide] | 0.29 µM |
| CCN(CC)C(=O)C(c1cccc(F)c1)N1CCN(c2ccc(-c3nc(C)no3)cc2F)CC1 (centres unmarked) [Compound 211, N,N-Diethyl-2-{4-[2-fluoro-4-(3-methyl-[1,2,4]oxadiazol-5-yl)-phenyl]-piperazin-1-yl}-2-(3-fluoro-phenyl)-acetamide] | 0.083 µM |
| CCN(CC)C(=O)C(c1ccccc1)N1CCN(c2ccc(-c3nnc(C(C)C)[nH]3)cc2F)CC1 (centres unmarked) [Compound 212, N,N-Diethyl-2-{4-[2-fluoro-4-(5-isopropyl-2H-[1,2,4]triazol-3-yl)-phenyl]-piperazin-1-yl}-2-phenyl-acetamide] | 0.83 µM |
| COC(=O)C(c1ccccc1)N1CCN(c2ccc(-c3nc(C(C)C)no3)cc2F)CC1 (centres unmarked) [Compound 213, {4-[2-Fluoro-4-(3-isopropyl-[1,2,4]oxadiazol-5-yl)-phenyl]-piperazin-1-yl}-phenyl-acetic acid methyl ester] | 0.24 µM |
| CCN(CC)C(=O)C(c1ccccc1)N1CCN(c2ccc(-c3ccccc3OC)cc2F)CC1 (centres unmarked) [Compound 214, N,N-Diethyl-2-[4-(3-fluoro-2′-methoxy-biphenyl-4-yl)-piperazin-1-yl]-2-phenyl-acetamide] | 0.078 µM |
| CCN(CC)C(=O)C(c1ccccc1)N1CCN(c2ccc(-c3nc(C)n(C)n3)cc2F)CC1 (centres unmarked) [Compound 215, 2-{4-[4-(1,5-Dimethyl-1H-[1,2,4]triazol-3-yl)-2-fluoro-phenyl]-piperazin-1-yl}-N,N-diethyl-2-phenyl-acetamide] | 1.1 µM |
| CCN(CC)C(=O)C(c1ccccc1)N1CCN(c2ccc(-c3nc(C(C)C)n(C)n3)cc2F)CC1 (centres unmarked) [Compound 216, N,N-Diethyl-2-{4-[2-fluoro-4-(5-isopropyl-1-methyl-1H-[1,2,4]triazol-3-yl)-phenyl]-piperazin-1-yl}-2-phenyl-acetamide] | 1.95 µM |
| Cc1noc(-c2ccc(N3CCN(C(C(=O)OC(C)(C)C)c4ccccc4)CC3)c(F)c2)n1 (centres unmarked) [Compound 219, {4-[2-Fluoro-4-(3-methyl-[1,2,4]oxadiazol-5-yl)-phenyl]-piperazin-1-yl}-phenyl-acetic acid tert-butyl ester] | 0.66 µM |
| CCN(CC)C(=O)C(c1ccccc1)N1CCN(c2ccc(-c3nc(C(C)C)nn3C)cc2F)CC1 (centres unmarked) [Compound 220, N,N-Diethyl-2-{4-[2-fluoro-4-(5-isopropyl-2-methyl-2H-[1,2,4]triazol-3-yl)-phenyl]-piperazin-1-yl}-2-phenyl-acetamide] | 1 µM |
| CCN(CC)C(=O)C(c1ccccc1)N1CCN(c2ccc(-c3nc(C(C)C)no3)cc2C(N)=O)CC1 (centres unmarked) [Compound 221, 2-[4-(Diethylcarbamoyl-phenyl-methyl)-piperazin-1-yl]-5-(3-isopropyl-[1,2,4]oxadiazol-5-yl)-benzamide] | 2.1 µM |
| CCOC(=O)C(C)(c1ccccc1)N1CCN(c2ccc(-c3nc(C)no3)cc2F)CC1 (centres unmarked) [Compound 226, 2-{4-[2-Fluoro-4-(3-methyl-[1,2,4]oxadiazol-5-yl)-phenyl]-piperazin-1-yl}-2-phenyl-propionic acid ethyl ester] | 1 µM |
| CCN(CC)C(=O)C(c1ccc(OC)cc1)N1CCN(c2ccc(-c3nc(C)no3)cc2C#N)CC1 (centres unmarked) [Compound 250, 2-{4-[2-Cyano-4-(3-methyl-[1,2,4]oxadiazol-5-yl)-phenyl]-piperazin-1-yl}-N,N-diethyl-2-(4-methoxy-phenyl)-acetamide] | 0.035 µM |
| CCN(CC)C(=O)C(c1ccccc1OC)N1CCN(c2ccc(-c3nc(C)no3)cc2C#N)CC1 (centres unmarked) [Compound 251, 2-{4-[2-Cyano-4-(3-methyl-[1,2,4]oxadiazol-5-yl)-phenyl]-piperazin-1-yl}-N,N-diethyl-2-(2-methoxy-phenyl)-acetamide] | 0.49 µM |
| CCN(CC)C(=O)C(c1cccs1)N1CCN(c2ccc(-c3nc(C)no3)cc2C#N)CC1 (centres unmarked) [Compound 252, 2-{4-[2-Cyano-4-(3-methyl-[1,2,4]oxadiazol-5-yl)-phenyl]-piperazin-1-yl}-N,N-diethyl-2-thiophen-2-yl-acetamide] | 0.096 µM |
| CCN(CC)C(=O)C(c1ccccc1)N1CCN(c2ccc(-c3ccccc3C#N)cc2F)CC1 (centres unmarked) [Compound 253, 2-[4-(2′-Cyano-3-fluoro-biphenyl-4-yl)-piperazin-1-yl]-N,N-diethyl-2-phenyl-acetamide] | 8.3 µM |
| CCN(CC)C(=O)C(c1ccccc1)N1CCN(c2ccc(-c3ccccc3C)cc2F)CC1 (centres unmarked) [Compound 254, N,N-Diethyl-2-[4-(3-fluoro-2′-methyl-biphenyl-4-yl)-piperazin-1-yl]-2-phenyl-acetamide] | 1 µM |
| CCN(CC)C(=O)C(c1ccccc1)N1CCN(c2ccc(-c3ccccc3OC)cc2C#N)CC1 (centres unmarked) [Compound 255, 2-[4-(3-Cyano-2′-methoxy-biphenyl-4-yl)-piperazin-1-yl]-N,N-diethyl-2-phenyl-acetamide] | 0.03 µM |
| CCN(CC)C(=O)C(c1ccccc1)N1CCN(c2ccc(-c3nc(C(C)C)no3)cc2C=O)CC1 (centres unmarked) [Compound 256, N,N-Diethyl-2-{4-[2-formyl-4-(3-isopropyl-[1,2,4]oxadiazol-5-yl)-phenyl]-piperazin-1-yl}-2-phenyl-acetamide] | 0.17 µM |
| CCN(CC)C(=O)C(c1ccccc1)N1CCN(c2ccc(-c3nc(C(C)C)no3)cc2CO)CC1 (centres unmarked) [Compound 257, N,N-Diethyl-2-{4-[2-hydroxymethyl-4-(3-isopropyl-[1,2,4]oxadiazol-5-yl)-phenyl]-piperazin-1-yl}-2-phenyl-acetamide] | 0.34 µM |
| CCN(CC)C(=O)C(c1ccccc1)N1CCN(c2ccc(-c3nc(C(C)C)no3)cc2CNC)CC1 (centres unmarked) [Compound 258, N,N-Diethyl-2-{4-[4-(3-isopropyl-[1,2,4]oxadiazol-5-yl)-2-methylaminomethyl-phenyl]-piperazin-1-yl}-2-phenyl-acetamide] | 1.8 µM |
| CCN(CC)C(=O)C(c1ccccc1)N1CCN(c2ccc(-c3nc(C(C)C)no3)cc2CN(C)C)CC1 (centres unmarked) [Compound 259, 2-{4-[2-Dimethylaminomethyl-4-(3-isopropyl-[1,2,4]oxadiazol-5-yl)-phenyl]-piperazin-1-yl}-N,N-diethyl-2-phenyl-acetamide] | 2.4 µM |
| CCN(CC)C(=O)C(c1ccccc1)N1CCN(c2ccc(-c3nc(C(C)C)no3)cc2COC)CC1 (centres unmarked) [Compound 260, N,N-Diethyl-2-{4-[4-(3-isopropyl-[1,2,4]oxadiazol-5-yl)-2-methoxymethyl-phenyl]-piperazin-1-yl}-2-phenyl-acetamide] | 0.98 µM |
| CCNC(=O)C(c1ccccc1)N1CCN(c2ccc(-c3nc(C)no3)cc2C#N)CC1 (centres unmarked) [Compound 261, 2-{4-[2-Cyano-4-(3-methyl-[1,2,4]oxadiazol-5-yl)-phenyl]-piperazin-1-yl}-N-ethyl-2-phenyl-acetamide] | 0.41 µM |
